Measured values reported in patent US7253293B2, “Enzymatic method to produce 7-dehydropregnenolone, vitamin D3-like compounds and derivatives thereof” (priority 2004, dated 2007).

How the values were obtained:
[1] = system: mitochondria from skin cells; experiment: Side-chain cleavage of radiolabelled cholesterol by mitochondria isolated from skin cells; assay type: biochemical; conditions: for conversion relative to that reported for placental mitochondria: cutaneous mitochondria versus literature value for placental mitochondria
Description: Mitochondrial fractions of the test tissue, i.e., skin, adrenals or placenta, were prepared by homogenizing the tissue in 5 vols ice-cold 0.25 M sucrose containing protease inhibitor cocktail (Sigma) (38). The homogenate was centrifuged at 600 g for 10 min at 4° C., and the resulting supernatant was centrifuged at 6000 g (placenta) or 9000 g (skin and adrenals) for 20 min at 4° C. to sediment the mitochondrial fraction. The pellet was resuspended in 0.25 M sucrose, and the mitochondrial fraction was again sedimented under the same conditions. The washed mitochondrial fraction was resuspended in 0.25 M sucrose and used for enzymatic reaction. For cultured skin cells, the above procedure was carried out after the cells had been swelled for 30 min in 20 mM HEPES, pH 7.4, before homogenization.
[4-^14C]Cholesterol (58 mCi.mmol^−1; Amersham Bioscience) was purified before its use as a substrate by mitochondria, by TLC on silica gel G plates in hexane/acetone (7:3, v/v). Isolated mitochondria (0.5 mg protein) were then preincubated (15 min at 37° C.) with purified [4-^14C]cholesterol (1 μCi, 34 μM) in 0.5 mL medium comprising 0.25M sucrose, 50 mM HEPES, pH 7.4, 20 mM KCl, 5 mM MgSO4, 0.2 mM EDTA, 0.4 μM adrenodoxin reductase, 6 μM adrenodoxin, 5 μM N-62 StAR protein (gift from W. Miller, University of California, San Francisco, Calif., USA) and 8 μM cyanoketone. The reaction was started by adding NADPH (0.5 mM) and isocitrate (5 mM), and samples were incubated at 37° C. for 150 min. The reaction was stopped by the addition of 1 mL ice-cold methylene chloride, and the incubation mixture extracted twice more with 1 mL methylene chloride. The fractions were combined, dried under nitrogen, and subjected to TLC on silica gel G plates and developed with hexane/acetone (7:3, v/v). Radiolabelled products were visualized using a phosphoimager, the steroids eluted from the plate with chloroform/methanol (1:1, v/v), and the associated radioactivity measured by scintillation counting.

Human P450scc = molecular target: T1, Human P450scc (Homo sapiens, UniProt P05108); experiment: Side-chain cleavage kinetics by human cytochrome P450scc in phospholipid vesicles; assay type: biochemical; conditions: for kcat: substrate and P450scc in dioleoylphosphatidylcholine vesicles containing cardiolipin, ±SE
T1 construct: made in house; host or cells: Escherichia coli
T1 sequence (P05108 40-521): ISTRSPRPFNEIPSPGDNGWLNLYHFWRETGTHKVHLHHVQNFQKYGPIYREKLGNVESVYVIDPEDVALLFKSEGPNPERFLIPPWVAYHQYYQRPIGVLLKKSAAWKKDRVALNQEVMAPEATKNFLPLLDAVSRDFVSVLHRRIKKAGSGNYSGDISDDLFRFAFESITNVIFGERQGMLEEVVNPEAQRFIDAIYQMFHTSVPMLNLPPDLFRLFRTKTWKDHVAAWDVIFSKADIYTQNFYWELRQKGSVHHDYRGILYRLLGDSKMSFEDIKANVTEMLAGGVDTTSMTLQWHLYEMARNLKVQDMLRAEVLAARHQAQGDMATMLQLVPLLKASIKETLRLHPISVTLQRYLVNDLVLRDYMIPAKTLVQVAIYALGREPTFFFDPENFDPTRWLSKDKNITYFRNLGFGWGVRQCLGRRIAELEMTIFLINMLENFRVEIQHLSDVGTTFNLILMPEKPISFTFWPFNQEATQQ
T1 sequence (P10109 61-184 partner): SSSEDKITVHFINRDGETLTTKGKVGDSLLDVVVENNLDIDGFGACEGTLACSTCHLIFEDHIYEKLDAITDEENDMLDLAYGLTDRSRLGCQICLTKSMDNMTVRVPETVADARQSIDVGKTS
Description: (§1) Large-scale reactions (50 mL) to cleave the side chain of 7-DHC were performed with purified bovine P450scc and its electron-transfer system in a manner similar to that described for cholesterol (41). The incubation mixture comprised 510 μM phospholipids vesicles (dioleoylphosphatidylcholine plus 15 mol % cardiolipin) with a substrate to phospholipids molar ration of 0.2 50 μM NADPH, 2 mM glucose 6-phosphate, 2 U-mL^−1 glucose 6-phosphate dehydrogenase, 0.3 μM adrenodoxin reductase, 6.5 μM adrenodoxin, 1.0 μM cytochrome P450scc and buffer, pH 7.4 (41). After incubation at 37° C. for 3 h, the mixture was extracted three times with 50 mL methylene chloride and dried under nitrogen at 35° C. Products were purified by preparative TLC on silica gel G with three developments in hexane/ethyl acetate (3:1 v/v) and products eluted from the silica gel with chloroform/methanol (1:1, v/v). Samples were dried under nitrogen and shipped for analysis on dry ice. Small-scale reactions (0.25 mL) to determine the kinetics of 7-DHC and cholesterol metabolism were performed with either bovine or human cytochrome P450scc as described for cholesterol (41). The amount of 7-DHP produced from 7-DHC was measured by RIA [25] using purified 7-DHP as standard.
Table 2 contains the kinetic parameters for side-cahin cleavage of 7-DHC and cholesterol by bovine and human cytochromes P450scc. Kinetic parameters were determined with substrates and P450scc incorporated into dioleoylphosphatidylcholine (PL) vesicles containing cardiolipin. Values for Kcat and Km are ±SE and are expressed as min^−1 and mol sterol-mol PL^−1, respectively. They were obtained from fitting hyperbolic curves to the kinetic data using […].

Bovine P450scc [2] = molecular target: T2, Bovine P450scc (Bos taurus, UniProt P00189); experiment: Side-chain cleavage kinetics by bovine cytochrome P450scc in phospholipid vesicles; assay type: biochemical; conditions: for kcat: substrate and P450scc in dioleoylphosphatidylcholine vesicles containing cardiolipin, ±SE
T2 construct: isolated from adrenals; from tissue; host or cells: bovine adrenals
T2 sequence (P00189 40-520): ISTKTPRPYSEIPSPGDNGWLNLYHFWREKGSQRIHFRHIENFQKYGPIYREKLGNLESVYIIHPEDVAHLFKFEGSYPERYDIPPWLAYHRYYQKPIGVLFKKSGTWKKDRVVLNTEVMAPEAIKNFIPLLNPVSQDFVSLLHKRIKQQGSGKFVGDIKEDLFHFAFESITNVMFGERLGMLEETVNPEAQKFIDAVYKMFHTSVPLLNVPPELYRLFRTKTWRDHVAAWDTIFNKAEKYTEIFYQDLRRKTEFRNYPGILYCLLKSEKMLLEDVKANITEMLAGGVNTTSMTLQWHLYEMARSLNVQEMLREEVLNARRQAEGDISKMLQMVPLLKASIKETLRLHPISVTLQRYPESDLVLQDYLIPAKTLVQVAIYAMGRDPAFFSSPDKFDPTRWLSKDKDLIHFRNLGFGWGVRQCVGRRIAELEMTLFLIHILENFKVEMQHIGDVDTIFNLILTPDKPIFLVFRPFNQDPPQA
T2 sequence (P00257 59-186 partner): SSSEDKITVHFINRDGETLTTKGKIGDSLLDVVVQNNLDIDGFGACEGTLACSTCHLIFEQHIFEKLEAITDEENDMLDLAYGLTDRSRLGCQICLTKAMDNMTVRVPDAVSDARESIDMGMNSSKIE
Description: as §1
Table 2 contains the kinetic parameters for side-cahin cleavage of 7-DHC and cholesterol by bovine and human cytochromes P450scc. Kinetic parameters were determined with substrates and P450scc incorporated into dioleoylphosphatidylcholine (PL) vesicles containing cardiolipin. Values for Kcat and Km are ±SE and are expressed as min^−1 and mol sterol-mol PL^−1, respectively. They were obtained from fitting hyperbolic curves to the kinetic data using KALEIDAGRAPH.

Bovine P450scc [3] = molecular target: T2, Bovine P450scc; conditions: 2-hydroxypropyl-β-cyclodextrin; cited from earlier work
MLN64 and StAR = conditions: reconstituted in vitro system; compared with cholesterol; cited from earlier work
[4] = cutaneous mitochondria, 34 μM substrate, 150 min at 37° C.

## CC(C)CCC[C@@H](C)[C@H]1CC[C@H]2[C@@H]3CC=C4[14CH2][C@@H](O)CC[C@]4(C)[C@H]3CC[C@]12C [[4-^14C]cholesterol, [4-^14C]Cholesterol]
[1]
  conversion relative to that reported for placental mitochondria: ~1%
[1]; listed as [4-^14C]-cholesterol
  conversion relative to that reported for placental mitochondria: approximately 1%
[1]; [4]
  rate of conversion into pregnenolone: 0.14%
  rate of conversion into progesterone: 0.04%

## CC(C)CCC[C@@H](C)[C@H]1CC[C@H]2C3=CC=C4C[C@@H](O)CC[C@]4(C)[C@H]3CC[C@]12C [7-DHC, cholesta-5,7-dien-3β-ol]
Human P450scc
  kcat relative to that for cholesterol: 70%
  kcat: 0.222 ± 0.0067 s⁻¹
Bovine P450scc [2]
  kcat: 0.407 ± 0.0183 s⁻¹
Bovine P450scc [2]; substrate dissolved in membrane of phospholipid vesicles
  kcat relative to that for cholesterol: 62%
Bovine P450scc [3]
  Vmax compared with cholesterol: same Vmax for 7-DHC and cholesterol
MLN64 and StAR
  efficiency of transport from donor to acceptor vesicles: efficiency similar to that for cholesterol

## CC(C)CCC[C@@H](C)[C@H]1CC[C@H]2[C@@H]3CC=C4C[C@@H](O)CC[C@]4(C)[C@H]3CC[C@]12C [Cholesterol, cholesterol]
Human P450scc
  kcat: 0.317 ± 0.0067 s⁻¹
Bovine P450scc [2]
  kcat: 0.655 ± 0.0283 s⁻¹
